In US10280174B2, “Salt of fused pyrimidine compound and crystal thereof” (TAIHO PHARMACEUTICAL CO., LTD., priority 2015, dated 2019):

Columns and labels:
[1] = Solid stability test (severe test), 60° C.; assay type: physicochemical
Experimental: (§1) Solid stability was measured under the following conditions, with respect to monofumarate of Compound A, hemitartrate of Compound A and monophosphate of Compound A which were obtained in the Examples and the Reference Examples, when they were stored for 2 weeks or 4 weeks at 60° C.
Storage condition: 60° C. (Sealed)
Point of measurement: 2 weeks and 4 weeks
(§2) Storage amount: About 30 mg
(§3) Storage container: Brown glass container
(§4) Method of preparing sample solution: Sample was dissolved in 50% acetonitrile such that a concentration of the sample would be 0.4 mg/mL.
In the Table, A and B refer to percentages of the total mass of analogous substance of less than 0.1%, and 0.1% or more and less than 0.5%, respectively. Incidentally, the value marked with * was measured at 2 weeks and the others were measured at 4 weeks.

[2] = Blood concentration measurement test after oral administration; details: mice
Experimental: These administration solutions were orally administered to mice (Balb/cA) which had been bred under a feeding condition, at a dose of 10 mL per 1 kg body weight, with a sonde for oral administration. After the administration, the mice were returned to a cage for mice and conditions were checked. Inside the cage was provided with a condition where water and food were accessible ad libitum. After 0.25, 0.5, 1, 2, 4 and 6 hours from the administration, the mice were anesthetized with isoflurane, and 60 μL of blood was collected from orbital sinus with a capillary blood collection tube.
The collected blood was ice cooled, and blood plasma was separated by a centrifugal operation. The mice after the blood collection was returned to an animal breeding cage, and conditions after recovery from the anesthesia were checked. When the last blood collection was finished, the mice were euthanized by cervical dislocation, after a level check of isoflurane anesthesia.
AUC0-6 hr, Cmax and Tmax were calculated by linear-log trapezoid method with Phoenix WinNonlin (v6.3.0) which is a software manufactured by Pharsight Corporation, from a concentration of Compound A in each blood plasma measured by MRM method with LC-MS/MS.

[3] = Moisture absorption/desorption test; assay type: physicochemical; details: for Weight change ratio, Adsorption / Weight change ratio, Desorption: 25° C.
Experimental: Moisture absorption/desorption test was carried out with respect to Compound A, monofumarate of Compound A, hemifumarate of Compound A, hemitartrate of Compound A and monophosphate of Compound A, to research the presence or absence of the characteristic of channel hydrate.
In the moisture absorption/desorption test, measurements were carried out according to the following conditions.
A dedicated quartz holder was filled with about from 5 to 10 mg of sample, and a weight of the sample at each humidity was measured and recorded in a continuous manner under the following conditions. Handling of the devices including data processing was based on the method and the process indicated in each device.
Device: VTI SA+ (manufactured by TA Instruments Inc.)
Drying temperature: 60° C.
Temperature rising speed: 1° C./min.
Equilibrium in drying: It is confirmed that no reduction of 0.01 wt % occurs in 5 minutes, in a range not exceeding 300 minutes.
Temperature for measurement: 25° C.
Equilibrium in humidification: It is confirmed that no increase of 0.01 wt % occurs in 5 minutes, in a range not exceeding 120 minutes.
Relative humidity program: Raised by 5% RH from 5% RH to 95% RH, and lowered by 5% RH from 95% RH to 5% RH.

[4] = Solid stability test (acceleration test), 40° C./75% RH; assay type: physicochemical; details: for total mass of analogous substance: 4 weeks
Experimental: as §1, with “monofumarate of Compound A, hemifumarate” for “monofumarate”, “40° C./75% RH (sealed condition and opened condition).” for “60° C.”
Storage condition: 40° C./75% RH (Sealed and Opened) (Opened refers to a condition where a glass container has the lid removed, and is covered with a KimWipe).
Points of measurement: 2 weeks and 4 weeks
as §2, §3, §4
Mass of analogous substance in the sample solution was measured by HPLC analysis. Handling of the devices including data processing was based on the method and the process indicated in each device. (Device: Shimadzu Corporation SIL-HTc/LC-20AB)
Column: InertSustein C18, 4.6×150 mm, 3 μm, manufactured by GL Sciences Inc.
MS detection: ESI positive
Column temperature: 40° C.
Column flow rate: 1.0 mL/min
Mobile phase: A; 10 mmol/L phosphate buffer (pH 6.0): Acetonitrile mixed solution (17:3), B; Acetonitrile
Amount of injection: 5 μL
In the Table, A, B and C refer to percentages of the total mass of analogous substance of less than 0.1%, 0.1% or more and less than 0.5%, and 0.5% or more, respectively. Incidentally, those marked with * were measured at 2 weeks' time and the others were measured at 4 weeks' time.

[5] = tested on: mouse collagen-induced arthritis model; assay: Mice collagen-induced arthritis model; assay type: in vivo, DBA/1 mice; details: 0.381 mg/kg, oral, 1 time per day, 17 days; FIG. 11
Experimental: The test was carried out in accordance with the method described in Non-Patent Literature (Brand D D, et al., Nat Protoc. 2007; 2, 1269-1275, Xu D. et al., JPET, 2012 April; 341 (1):90-103). Seven-week-old male/DBA/1 mice (CHARLES RIVER LABORATORIES JAPAN, INC.) were intracutaneously injected in the dorsum with 100 μL/body of an equal amount-mixed solution (emulsion) of 4 mg/mL of bovine type 2 collagen solution (Collagen Research Center) and Complete Freund's Adjuvant (DIFCO Inc.) (initial immunization). After 21 days therefrom, the mice were intracutaneously injected in the chine with 100 μL/body of an equal amount-mixed solution (emulsion) of 4 mg/mL of bovine type 2 collagen solution (Collagen Research Center) and Complete Freund's Adjuvant (DIFCO) to provide an additional immunization. The oral administration of 1 time per day was continued for 17 days setting the administration initiation day (day 0) as the eighth day from the additional immunization. Symptoms of arthritis in day 0, day 3, day 7, day 10, day 14 and day 17 were scored macroscopically (0: No change, 1: Swelling of a finger, 2: Swelling of two fingers or more, 3: Swelling of instep, 4: Swelling of all fingers extending wrist/ankle), and a total in four limbs was obtained as a point of individual body (maximum 16 points).

[6] = 50 mg/kg in terms of Compound A, 0.5% HPMC suspension, plasma Compound A

- total mass of analogous substance ([1]; 60° C. (Sealed), 4 weeks): A (less than 0.1%)
- solid stability (in words) ([1]; 60° C., compared to hemitartrate or monophosphate): excellent solid stabilities
- Cmax relative to that of Compound A ([2]; 50 mg/kg): about two fold
- AUC0-6 hr [2, 6]: 7.33 µM·h
- Cmax [2, 6]: 7.63 µM
- Tmax [2, 6]: 15 min
- Weight change ratio, Adsorption ([3]; relative humidity 5%): 0.01%
- Weight change ratio, Desorption ([3]; relative humidity 5%): 0.05%
- Weight change ratio, Adsorption ([3]; relative humidity 20%): 0.14%
- Weight change ratio, Desorption ([3]; relative humidity 20%): 0.17%
- Weight change ratio, Adsorption ([3]; relative humidity 40%): 0.30%
- Weight change ratio, Desorption ([3]; relative humidity 40%): 0.33%
- Weight change ratio, Adsorption ([3]; relative humidity 60%): 0.37%
- Weight change ratio, Desorption ([3]; relative humidity 60%): 0.41%
- Weight change ratio, Adsorption ([3]; relative humidity 80%): 0.45%
- Weight change ratio, Desorption ([3]; relative humidity 80%): 0.49%
- Weight change ratio, Adsorption ([3]; relative humidity 95%): 0.60%
- Weight change ratio, Desorption ([3]; relative humidity 95%): 0.60%
- mass change (increase) ([3]; relative humidity of 95%): less than 1%
- total mass of analogous substance ([4]; Opened): A (less than 0.1%)
- total mass of analogous substance ([4]; Sealed): A (less than 0.1%)
- solid stability (in words) ([4]; compared to hemitartrate or monophosphate): excellent solid stabilities
SMILES: C=CC(=O)N1CCC[C@@H](n2nc(C(=O)Nc3nc4ccccc4o3)c3c(N)ncnc32)C1.O=C(O)/C=C/C(=O)O [monofumarate of Compound A, (R)-1-(1-acryloylpiperidin-3-yl)-4-amino-N-(benzo[d]oxazol-2-yl)-1H-pyrazolo[3,4-d]pyrimidine-3-carboxamide.monofumarate]
- arthritis score [5]: lowered the arthritis score effectively
